# From patent US11667602B2, “Compounds and their use” (AstraZeneca AB, priority 2020, dated 2023)
# Target: T1, human RXFP1 (Homo sapiens, UniProt Q9HBX9)
# T1 sequence (Q9HBX9 1-757): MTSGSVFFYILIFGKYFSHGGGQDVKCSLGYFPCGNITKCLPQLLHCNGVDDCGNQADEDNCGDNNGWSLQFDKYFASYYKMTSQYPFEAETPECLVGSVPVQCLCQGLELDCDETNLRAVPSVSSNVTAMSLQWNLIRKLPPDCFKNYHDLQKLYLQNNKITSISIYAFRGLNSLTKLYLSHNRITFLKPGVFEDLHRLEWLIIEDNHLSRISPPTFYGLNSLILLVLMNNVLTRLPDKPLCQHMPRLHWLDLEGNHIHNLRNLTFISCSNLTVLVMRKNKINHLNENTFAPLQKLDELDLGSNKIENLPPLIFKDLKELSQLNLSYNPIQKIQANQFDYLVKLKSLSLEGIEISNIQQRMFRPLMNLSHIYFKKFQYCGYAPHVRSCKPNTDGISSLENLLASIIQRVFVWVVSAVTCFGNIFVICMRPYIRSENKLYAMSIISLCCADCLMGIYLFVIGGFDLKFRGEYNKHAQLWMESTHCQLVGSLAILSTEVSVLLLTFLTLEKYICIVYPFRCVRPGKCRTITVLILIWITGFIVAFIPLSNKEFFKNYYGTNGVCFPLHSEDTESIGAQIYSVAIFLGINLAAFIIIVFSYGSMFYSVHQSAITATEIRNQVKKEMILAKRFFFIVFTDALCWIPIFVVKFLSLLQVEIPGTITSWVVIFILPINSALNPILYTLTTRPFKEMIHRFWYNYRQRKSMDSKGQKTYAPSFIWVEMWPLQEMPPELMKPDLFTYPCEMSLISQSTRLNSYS
# Test: RXFP1 Hu cAMP (Test A)
# Assay type: cell-based
# Parameters: expressed in transfected cells; host or cells: Jump-In T-REx CHO-K1 cells (ThermoFisher), induced with 10 ng/ml doxycycline for 24 h
# Settings: RXFP1 Hu cAMP; for EC50: read-out: Test A EC50
# Excerpt: To screen for modulators of hRXFP1, an assay identifying compounds that stimulate cAMP production via the Gs-coupled hRXFP1 receptor was used. cAMP HiRange HTRF kit (available from CisBio Bioassays, France; catalogue number 62AM6PEJ) was employed in large according to manufacturer's recommendations for detection of cAMP. The HTRF method is a competitive immunoassay between native cAMP produced by cells and cAMP labeled with the dye d2. The tracer binding is visualized with a cryptate labeled antibody for cAMP and the signal is thus inversely proportional to the amount of produced cAMP.
# Cells: Jump-In™ T-REx™ CHO-K1 Cells (ThermoFisher) stably transfected with human RXFP1 was employed. Cells were induced to express human RXFP1 by treatment with 10 ng/ml doxycycline for 24 h. Cells were then cryopreserved for long term storage.
# HTRF detection reagents: cAMP-d2 and anti-cAMP cryptate reconstituted according to CisBio instructions were diluted 1:40 in lysis buffer provided with the HTRF-kit.
# 3. 4 μL assay buffer with 1 mM IBMX (0.5 mM final concentration) to block phosphodiesterases was added with Multidrop Combi (ThermoFisher).
# 6. 4 μL cAMP-d2 in lysis buffer was added with Multidrop Combi.
# 7. 4 μL anti-cAMP cryptate in lysis buffer was added with Multidrop Combi
# 8. 2 h incubation at room temperature
# Using a cAMP standard curve, HTRF data was converted to amount cAMP produced in the samples which was subsequentially used for calculation of concentration responses. Concentration response data were fitted with a four parameter logistic fit, the Hill equation. The results from the assay are reported in Table 36 as EC50 (μM) and Sinf (%).
# Where the assay was run multiple times for the same compound, the geometric mean is reported.
# Sinf is the fitted activity level, efficacy, at infinite concentration of test compound. To facilitate comparison of efficacy data, efficacy was normalized to % effect of the response stimulated by a saturating concentration of relaxin (1 nM). Where the assay was run multiple times for the same compound, the arithmetic mean is reported.
EC50 [nM],Test A Sinf [%],Molecule
> 40000,,"COc1cc(F)c(O[C@H]2CC[C@@](C)(C(=O)O)CC2)cc1C(=O)NC1C(O)CCC1C(=O)Nc1cccc(S(=O)(=O)C(F)(F)F)c1 (single isomer, unassigned) [Example 528, (1R,4s)-4-(2-Fluoro-5-(((1S*,2S*,5S*)-2-hydroxy-5-((3-((trifluoromethyl)sulfonyl)phenyl)carbamoyl)cyclopentyl)carbamoyl)-4-methoxyphenoxy)-1-methylcyclohexane-1-carboxylic acid]"
220,94,COc1cc(C#N)c(O[C@H]2CC[C@@](C)(C(=O)O)CC2)cc1C(=O)N[C@@H]1[C@H]2CC[C@H](C2)[C@@H]1C(=O)NCc1cccc(C)c1 [Example 115]
2000,155,COc1cc(F)c(OCc2cccc(CC(=O)O)c2)cc1C(=O)N[C@H]1[C@@H](C(=O)Nc2cccc(S(=O)(=O)C(F)(F)F)c2)[C@@H]2C=C[C@H]1C2 (racemic) [Example 453]
250,100,COc1cc(F)c(O[C@H]2CC[C@@](C)(C(=O)O)CC2)cc1C(=O)N[C@@H]1[C@H]2CC[C@H](C2)[C@@H]1C(=O)NC(C)(C)C [Example 602]
> 40000,,"COc1cc(F)c(OC2CCC(C)(C(=O)O)CC2)cc1C(=O)NC1COCC1C(=O)Nc1ccc(F)c(S(F)(F)(F)(F)F)c1 [Example 564, (1R,4s)-4-(2-Fluoro-5-(((3S*,4R*)-4-((4-fluoro-3-(pentafluoro-λ6-sulfaneyl)phenyl)carbamoyl)tetrahydrofuran-3-yl)carbamoyl)-4-methoxyphenoxy)-1-methylcyclohexane-1-carboxylic acid]"
69,107,COc1cc(C#N)c(O[C@H]2CC[C@@](C)(C(=O)O)CC2)cc1C(=O)Nc1cc(Cl)ccc1C(=O)N[C@H](C)C(C)(C)F [Example 162]
1300,94,"COc1cc(F)c(OC2CCC(CO)(C(=O)O)CC2)cc1C(=O)N[C@H]1C[C@H](OC)C[C@H]1C(=O)NCC(C)(C)C (relative stereo) [Example 549, (1R,4s)-4-(2-Fluoro-4-methoxy-5-(((1S*,2R*,4R*)-4-methoxy-2-(neopentylcarbamoyl)cyclopentyl)carbamoyl)phenoxy)-1-(hydroxymethyl)cyclohexane-1-carboxylic acid]"
12,115,COc1cc(F)c(O[C@H]2CC[C@@H](C(=O)O)CC2)cc1C(=O)N[C@H]1[C@@H](C(=O)Nc2ccc(F)c(S(=O)(=O)C(F)(F)F)c2)[C@@H]2C=C[C@H]1C2 [Example 489]
130,114,"COc1cc(F)c(-c2ccc(O)c(C(=O)O)c2)cc1C(=O)N[C@H]1[C@@H]2CC[C@@H](C2)[C@H]1C(=O)Nc1cccc(S(=O)(=O)C(F)(F)F)c1 (single isomer, unassigned) [Example 556]"
7500,50,COc1cc(F)c(-c2ccc(C(=O)O)cc2)cc1C(=O)N[C@H]1[C@@H](C(=O)N[C@@H]2CCCN(S(=O)(=O)C(F)(F)F)C2)[C@@H]2C=C[C@H]1C2 (racemic) [Example 312]
650,118,"COc1cc(F)c(OC2CC(CC(=O)O)C2)cc1C(=O)NC1C2CCC(C2)C1C(=O)Nc1cccc(S(=O)(=O)C(F)(F)F)c1 [Example 474, 2-((1R,3r)-3-(2-Fluoro-4-methoxy-5-(((1R,2R,3S,4S)-3-((3-((trifluoromethyl)sulfonyl)phenyl)carbamoyl)bicyclo[2.2.1]heptan-2-yl)carbamoyl)phenoxy)cyclobutyl)acetic acid]"
> 40000,,"COc1cc(F)c(OC2CCC(CO)(C(=O)O)CC2)cc1C(=O)NC1CC(OC)CC1C(=O)NCC1(C)CCC1 (single isomer, unassigned) [Example 550, (1R,4s)-4-(2-Fluoro-4-methoxy-5-(((1S*,2R*,4R*)-4-methoxy-2-(((1-methylcyclobutyl)methyl)carbamoyl)cyclopentyl)carbamoyl)phenoxy)-1-(hydroxymethyl)cyclohexane-1-carboxylic acid]"
31,101,"COc1cc(F)c(O[C@H]2CC[C@@](C)(C(=O)O)CC2)cc1C(=O)N[C@@H]1[C@H]2OCO[C@H]2C[C@@H]1C(=O)Nc1cccc(S(=O)(=O)C(F)(F)F)c1 (racemic) [Example 395, (1R,4s)-4-(2-Fluoro-4-methoxy-5-(((3aRS,4SR,5SR,6aSR)-5-((3-((trifluoromethyl)sulfonyl)phenyl)carbamoyl)tetrahydro-4H-cyclopenta[d][1,3]dioxol-4-yl)carbamoyl)phenoxy)-1-methylcyclohexane-1-carboxylic acid]"
130,90,"CC1(CNC(=O)[C@H]2[C@@H]3CC[C@@H](C3)[C@H]2NC(=O)c2cc(O[C@H]3CC[C@@](C)(C(=O)O)CC3)c(F)cc2Cl)CCC1 [Example 398, (1S,4s)-4-(4-Chloro-2-fluoro-5-(((1S,2R,3S,4R)-3-(((1-methylcyclobutyl)methyl)carbamoyl)bicyclo[2.2.1]heptan-2-yl)carbamoyl)phenoxy)-1-methylcyclohexane-1-carboxylic acid]"
70,114,CC[C@]1(C(=O)O)CC[C@@H](Oc2cc(C(=O)N[C@@H]3[C@H]4CC[C@H](C4)[C@@H]3C(=O)NCC(C)(C)C)c(OC)cc2F)CC1 [Example 386]
160,125,COc1cc(C#N)c(O[C@H]2CC[C@@](C)(C(=O)O)CC2)cc1C(=O)Nc1cc(Cl)ccc1C(=O)NCC1(F)CCC1 [Example 160]
780,91,COc1cc(C#N)c(O[C@H]2CC[C@@](C)(C(=O)O)CC2)cc1C(=O)N[C@@H]1CCCC[C@@H]1C(=O)NCC1(C)CCC1 [Example 361]
1600,63,"COc1cc(F)c(O[C@H]2CC[C@@H](C(=O)O)CC2)cc1C(=O)N[C@H]1[C@H]2CC[C@H](C2)[C@H]1C(=O)Nc1cccc(S(F)(F)(F)(F)F)c1 [Example 510, (1R,4s)-4-(2-Fluoro-4-methoxy-5-(((1S,2S,3R,4R)-3-((3-(pentafluoro-6-sulfaneyl)phenyl)carbamoyl)bicyclo[2.2.1]heptan-2-yl)carbamoyl)phenoxy)cyclohexane-1-carboxylic acid]"
,113,COc1cc(C#N)c(O[C@H]2CC[C@@](C)(C(=O)O)CC2)cc1C(=O)N[C@@H]1[C@H]2CC[C@H](C2)[C@@H]1C(=O)NCCCC1CC1 [Example 132]

Molecule,EC50 [nM],Test A Sinf [%]
"(1R,4s)-4-(2-Fluoro-4-methoxy-5-(((1S*,2S*,3R*,4R*)-3-((3-((trifluoromethyl)sulfonyl)phenyl)carbamoyl)bicyclo[2.2.1]heptan-2-yl)carbamoyl)phenoxy)-1-methylcyclohexane-1-carboxylic acid [Example 587]",,113
"(1R,4s)-4-(2-fluoro-4-methoxy-5-(((1S*,2S*,5S*)-2-methoxy-5-((3-((trifluoromethyl)sulfonyl)phenyl)carbamoyl)cyclopentyl)carbamoyl)phenoxy)-1-methylcyclohexane-1-carboxylic acid [Example 527]",,101
"(1R,4s)-4-(2-Cyano-4-methoxy-5-(((1S*,2R*)-2-(((1-methylcyclobutyl)methyl)carbamoyl)cyclobutyl)carbamoyl)phenoxy)-1-methylcyclohexane-1-carboxylic acid [Example 573]",,94
